Patent publication US7314959B2, “Amino thiol compounds and compositions for use in conjunction with cancer therapy” (Wisconsin Alumni Research Foundation, priority 2003, dated 2008)

Assays:
[1] = test system: hamster cheek pouch mucosa; test: Radiation-induced mucositis, hamster cheek pouch model; format: in vivo; conditions: 50 mM or 500 mM topical for 30 min before 30 Gy (17.5 min) irradiation
Excerpt: The model for radiation-induced oral mucositis was developed for the purpose of screening and identifying effective polyamines and aminothiols useful for treatment. The model used in this example was derived from the oral mucositis model described by Alvarez et al. (Clin. Cancer Research 9:3454-3461, 2003). Male golden Syrian hamsters (70-95 gram, Charles River Laboratories, Wilmington, Mass.) were used. Animals were individually numbered, housed in small groups and fed and watered ad libitum. Hamsters were anesthetized with sodium pentobarbital (80 mg/kg body weight, Sigma, St. Louis, Mo.). The left buccal cheek pouch was everted and secured. A protective lead shield covered the remainder of the animal. Subsequently, the cheek pouch was irradiated with a single dose of radiation from 20 to 40 Gy delivered to the targeted mucosa in the ^137Cs irradiator. Starting 10 to 12 days after radiation, the severity of mucositis was assessed every two days. The severity level of mucositis was evaluated using a modified mucositis scoring system described by Sonis S. T. et al. (Oral Oncology 36:373-381, 2000)
The scoring system was as follows: • 0=Pouch completely healthy. No erythema or vasodilatation. • 1=Erythema. • 2=Severe erythema, vasodilatation • 3=Severe erythema/vasodilatation. Superficial erosion on radiated pouch surface area. • 4=Formation of ulcers in one or more places. […]

[2] = test system: Cytoxan-induced alopecia in rat pups; test: Cytoxan-induced alopecia in rat pups; format: in vivo
Method: Induction of alopecia by cytoxan (CTX). Lactating Sprague Dawley mother rats with rat pups were purchased from Harlan Sprague Dawley (Indianapolis, Ind.). The mother rats were given food and water ad libitum. The rats pups were tested in the model of chemotherapy-induced alopecia described by Hussein A. M. et al., Science: 249, 1564 (1990). Cytoxan (CTX), a chemotherapeutic widely used in the treatment of cancer, was used to induce alopecia in the rats. A common side effect of cytoxan treatment in patients is alopecia. Lyophilized vials of Cytoxan were obtained from Mead-Johnson. To produce CTX-induced alopecia, 11 day old rat pups, which are at the peak of coat growth, were injected i.p. with 30-35 μg of CTX/gm body weight. CTX was dissolved in water. By day 18 of life, the animals have shed virtually 100% of their coat leaving bare skin on their backs. Thus, topical application of protective drugs to the animal's back prior to the CTX insult provides a suitable test for prevention of chemotherapy-induced alopecia. A separate alopecia assay was also developed in which whole-body irradiation on day 11 of life was used as the insult. This assay is described in further detail in Example 12 which follows.
In the earliest studies with chemoprotective polyamines, the molecules were prepared in a topical delivery vehicle consisting of from 50-70% ethanol in water, depending on the solubility of the compound. The compounds in ethanol/water solution from 50-150 µl in volume were topically administered to the backs of the pups once per day before and after CTX challenge. Using a micropipette, the formulation was applied to an approximately 2 cm2 section of skin on the backs of the rat pups. Specifically, the pups were treated once daily for the 4-5 days before CTX challenge, once on the day of CTX challenge and once daily for 5 days afterwards. Control groups consisted of pups receiving only delivery vehicle. […]
In the earliest studies with chemoprotective polyamines, hair loss was evaluated using a modified alopecia-scoring index described by Chen G. et al., Int. […] In the later studies with aminothiols a simpler scoring scale was adopted in which coat density was scored on a 0-100 scale as “% of normal coat density.”
Method: To assess the ability of topical treatments to prevent Cytoxan-induced alopecia we used a published protocol (Hussein et al., Science. 249(4976):1564-6, 1990) in which 11 day old neonate rat pups (Sprague-Dawley) receive a total of 6 topical skin treatments of active agent(s) during the 5 hr before and 2 hr after a single ip dose of Cytoxan (32 ug/gm b.w.). […] The density of the rat coats in the topical treatment area was scored on day 18 of life for animals injected with Cytoxan.

With CNCC(CS)CNC [PrC-210, 3-methylamino-2-methylaminomethyl-propane-1-thiol] the “effect on radiation-induced erythema, swelling and inflexibility of cheek pouch” value [1] was “significant decrease in the erythema, swelling and inflexibility”, the “Alopecia Score (% Normal Coat Density in Topical Treatment Area)” value ([2]; 2000 mM PrC-210 alone, ip Cytoxan 32 ug/gm b.w., Experiment 552-555) was 9% and the “effect in preventing Cytoxan-induced alopecia” value ([2]; neonate rats, three days topical resveratrol and/or topical PrC-210) was “weak effect”.
